Assay results taken from the NIST ThermoML archive (doi:10.1016/j.jct.2005.07.011).
Numbers after ± are expanded uncertainties.

Experiment: excess molar enthalpy (molar enthalpy of mixing); xn = mol fraction of the nth substance listed
Conditions: 1000 kPa, Liquid, Flow calorimetry

CC(C)(C)O [2-methylpropan-2-ol] + COC(=O)OC
excess molar enthalpy [kJ/mol]
Conditions | 298.15 K | 328.15 K
x2 = 0.05 | 0.536 ± 0.019 | 0.521 ± 0.018
x2 = 0.1 | 0.993 ± 0.019 | 0.956 ± 0.018
x2 = 0.15 | 1.38 ± 0.018 | 1.34 ± 0.018
x2 = 0.2 | 1.69 ± 0.018 | 1.67 ± 0.018
x2 = 0.25 | 1.958 ± 0.018 | 1.933 ± 0.018
x2 = 0.3 | 2.16 ± 0.019 | 2.157 ± 0.019
x2 = 0.35 | 2.318 ± 0.02 | 2.325 ± 0.02
x2 = 0.4 | 2.447 ± 0.02 | 2.44 ± 0.02
x2 = 0.45 | 2.523 ± 0.02 | 2.519 ± 0.02
x2 = 0.5 | 2.553 ± 0.021 | 2.545 ± 0.021
x2 = 0.55 | 2.531 ± 0.021 | 2.525 ± 0.02
x2 = 0.6 | 2.458 ± 0.02 | 2.465 ± 0.02
x2 = 0.65 | 2.362 ± 0.02 | 2.353 ± 0.02
x2 = 0.7 | 2.206 ± 0.019 | 2.2 ± 0.019
x2 = 0.75 | 1.982 ± 0.019 | 1.964 ± 0.019
x2 = 0.8 | 1.72 ± 0.019 | 1.72 ± 0.019
x2 = 0.9 | 1.05 ± 0.018 | 1.03 ± 0.018
x2 = 0.95 | 0.562 ± 0.02 | 0.537 ± 0.02
